From PubChem BioAssay (NCI) come the findings set out here.

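Protocol summary: plate cells (96-well), add compound at 5 concentrations, incubate 48 h, interpolate endpoints linearly. GI50: concentration for 50% inhibition of growth. TGI denotes the concentration required for complete inhibition of growth.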

Test systems include UO-31 renal; LOX IMVI melanoma; SF-268 CNS; NCI-H23 lung; COLO 205 colon; OVCAR-5 ovarian; HL-60(TB) leukemia; SR leukemia.
Holding throughout (assay): NCI-60 cell line screen, 48 h

In the case of `CC(=O)OCCOCNC(=S)N/N=C(\C)c1ccco1`, the TGI with UO-31 renal, with LOX IMVI melanoma, in the assay with SF-268 CNS, in the assay with NCI-H23 lung, with COLO 205 colon and in the assay on OVCAR-5 ovarian was greater than 100 µM throughout.
Regarding `CCC(=O)O[C@@H]1C2C(OC(C)=O)C34COC(C)([C@@H]3C3C(C[C@]3(C)OC(C)=O)[C@@H](OC(=O)c3ccccc3)C4=O)[C@H](OC(C)=O)[C@@]2(OC(C)=O)C[C@@H]1C` (some centres undefined), the TGI in the assay with UO-31 renal was greater than 100 µM; in the assay on LOX IMVI melanoma it was greater than 100 µM; with SF-268 CNS, greater than 100 µM; with NCI-H23 lung it was 45 µM; in the assay on HL-60(TB) leukemia, 30 µM; in the assay with COLO 205 colon, greater than 100 µM. Moreover, the TGI with OVCAR-5 ovarian and with SR leukemia was greater than 100 µM in each case.
Take `Cn1cc(C(=O)C2CCCCC2)ccc1=O`: the TGI in the assay on UO-31 renal, in the assay on LOX IMVI melanoma, in the assay with SF-268 CNS, in the assay on NCI-H23 lung, in the assay with HL-60(TB) leukemia and in the assay on COLO 205 colon was greater than 100 µM in each case. The TGI in the assay on OVCAR-5 ovarian and in the assay with SR leukemia was greater than 100 µM throughout.
As to `COc1ccccc1NC(=O)C1=C(C)NC(C)=C(C(=O)Nc2ccccc2OC)C1c1ccc(C(C)C)cc1`, the TGI with UO-31 renal is greater than 100 µM; with LOX IMVI melanoma it was greater than 100 µM; in the assay on SF-268 CNS it was greater than 100 µM; with NCI-H23 lung it was greater than 100 µM; in the assay on HL-60(TB) leukemia, greater than 1 µM; with COLO 205 colon it was greater than 100 µM. Besides, the TGI in the assay on OVCAR-5 ovarian and in the assay with SR leukemia was greater than 100 µM in each case.
As to `CC(CN(CP(=O)([O-])[O-])CP(=O)([O-])[O-])N(CP(=O)([O-])[O-])CP(=O)([O-])[O-].N[C@@H]1CCCC[C@@H]1N.[Pt+2]` (centres undefined), the GI50 with UO-31 renal, in the assay on LOX IMVI melanoma, with SF-268 CNS, with NCI-H23 lung, with HL-60(TB) leukemia and in the assay on COLO 205 colon was greater than 100 µM in each case. The GI50 in the assay on OVCAR-5 ovarian was greater than 100 µM. Moreover, the TGI in the assay on UO-31 renal, in the assay on LOX IMVI melanoma, in the assay on SF-268 CNS, in the assay on NCI-H23 lung, in the assay with HL-60(TB) leukemia and with COLO 205 colon was greater than 100 µM throughout. The compound further yielded a TGI in the assay with OVCAR-5 ovarian greater than 100 µM.
Take `Cc1ccc(S(=O)(=O)N2CCCCC2CCO)cc1` (centres undefined): the TGI in the assay with UO-31 renal, with SF-268 CNS, with NCI-H23 lung, in the assay with HL-60(TB) leukemia, in the assay with COLO 205 colon and with OVCAR-5 ovarian was greater than 100 µM throughout. This compound also yielded a TGI with SR leukemia greater than 100 µM.
For the compound `Cc1cc(Cl)ccc1NC(=O)C1C(=O)N(c2ccc(Cl)cc2C)C(=O)/C1=N\N` (centres undefined), the TGI is greater than 100 µM in the assay on UO-31 renal; greater than 100 µM in the assay with LOX IMVI melanoma; 96.4 µM in the assay on SF-268 CNS; greater than 100 µM with NCI-H23 lung; greater than 100 µM in the assay with HL-60(TB) leukemia; greater than 100 µM with COLO 205 colon. Besides, the TGI in the assay on OVCAR-5 ovarian and in the assay on SR leukemia was greater than 100 µM throughout.
Turning to `O=C(/C=C/c1ccccc1F)C(c1ccccc1)c1ccccc1`, the TGI in the assay with UO-31 renal came out at 25.2 µM; in the assay with LOX IMVI melanoma it was 3.2 µM; in the assay on SF-268 CNS, 11.3 µM; in the assay on HL-60(TB) leukemia, 11.8 µM; in the assay on SR leukemia, 41.9 µM.
As to `CCN(CCCl)CCNc1c2ccccc2nc2ccc(OC)cc12`, the TGI with UO-31 renal was 3.98 µM; in the assay on LOX IMVI melanoma, 2.14 µM; in the assay on SF-268 CNS, 2.59 µM; in the assay with NCI-H23 lung, 2.12 µM; in the assay on HL-60(TB) leukemia, 3.91 µM; with COLO 205 colon, 1.82 µM. This compound also yielded a TGI with OVCAR-5 ovarian of 4.04 µM.
As for `CC(C)(C)c1cc(C(O)(C(F)(F)F)C(F)(F)F)c2c(c1)C(C(F)(F)F)(C(F)(F)F)OC(c1ccccc1)(C(C)(C)C)N2` (centres undefined), the TGI in the assay on UO-31 renal came to 15.2 µM; in the assay on NCI-H23 lung it was 10.3 µM; in the assay with COLO 205 colon, 16.1 µM; in the assay on OVCAR-5 ovarian it was 50.9 µM; with SR leukemia it was 6.69 µM.
Consider `O=C1C(c2ccccc2)=C(c2ccccc2)C(c2ccccc2)/C1=C1\C(=O)C(c2ccccc2)=C(c2ccccc2)C1c1ccccc1` (centres undefined), for which the TGI with UO-31 renal, in the assay on LOX IMVI melanoma, in the assay with SF-268 CNS, with NCI-H23 lung, with HL-60(TB) leukemia and in the assay on COLO 205 colon was greater than 100 µM in each case. For the same compound, the TGI in the assay with OVCAR-5 ovarian and in the assay on SR leukemia was greater than 100 µM throughout.
For `CC(C)(C)c1ccccc1NS(=O)(=O)c1ccccc1`, the TGI with UO-31 renal, in the assay on NCI-H23 lung, in the assay with HL-60(TB) leukemia and in the assay with OVCAR-5 ovarian was greater than 100 µM in each case.
With `Cc1cccc(C)c1NC(=O)C(=O)C1C(=O)N(c2ccccc2)N=C1N` (centres undefined), the TGI in the assay with UO-31 renal, in the assay with LOX IMVI melanoma, in the assay with SF-268 CNS, with NCI-H23 lung, in the assay on HL-60(TB) leukemia and in the assay with COLO 205 colon was greater than 100 µM in each case. The TGI in the assay with OVCAR-5 ovarian and with SR leukemia was greater than 100 µM in each case.
As for `CC(=O)O[C@H]1CC[C@@]2(C)C(=CC[C@@H]3C2CC[C@]2(C)Nc4oncc4CC32)C1` (some centres undefined), the TGI in the assay on UO-31 renal is 70.7 µM; in the assay with NCI-H23 lung it was greater than 100 µM; with HL-60(TB) leukemia, 31.9 µM; in the assay on OVCAR-5 ovarian, greater than 100 µM.
Consider `CCCCCCCCCCCCC(Br)C(=O)SCCNC(=O)CCNC(=O)[C@@H](O)C(C)(C)COP(=O)(O)OP(=O)(O)OCC1OC(n2cnc3c(N)ncnc32)C(O)C1OP(=O)(O)O` (some centres undefined), for which the TGI in the assay on UO-31 renal, in the assay on LOX IMVI melanoma, in the assay on SF-268 CNS, in the assay on NCI-H23 lung, in the assay on HL-60(TB) leukemia and with COLO 205 colon was greater than 56.5 µM in each case. Also, in the assay with OVCAR-5 ovarian, the TGI was greater than 56.5 µM.
In the case of `CCOC(=O)[C@H]1Nc2ccc(O)cc2C2c3ccccc3CC21` (some centres undefined), the TGI with UO-31 renal, in the assay with LOX IMVI melanoma, with SF-268 CNS, in the assay with NCI-H23 lung, in the assay on COLO 205 colon and with OVCAR-5 ovarian was greater than 100 µM throughout.
As to `CCCCCCCCCCCCCC(=O)OCC1OC(OC)C(NC(=O)N(CCCl)N=O)C(O)C1O` (centres undefined), the TGI in the assay on UO-31 renal is 51.7 µM; in the assay on LOX IMVI melanoma, 25.7 µM; with SF-268 CNS, 40.1 µM; in the assay with NCI-H23 lung, 28.6 µM; in the assay with COLO 205 colon, 98.5 µM; with OVCAR-5 ovarian it was 91.1 µM. Also, in the assay with SR leukemia, the TGI worked out at 26.7 µM.
Consider `CCOc1ccc(NC(=O)C2=C(C)NC(C)=C(C(=O)Nc3ccc(OCC)cc3)C2c2ccc([N+](=O)[O-])cc2)cc1`, for which the TGI in the assay on UO-31 renal is greater than 100 µM; in the assay with LOX IMVI melanoma, greater than 100 µM; in the assay on SF-268 CNS it was greater than 100 µM; in the assay with NCI-H23 lung, greater than 100 µM; with HL-60(TB) leukemia, 52.7 µM; in the assay with COLO 205 colon, 53.3 µM. In the assay on OVCAR-5 ovarian, this compound registered a TGI of 86.9 µM.
Consider `O=S1(=O)CSc2ccc3ccccc3c2-c2c1ccc1ccccc21`, for which the TGI with UO-31 renal, in the assay on LOX IMVI melanoma, in the assay with SF-268 CNS, in the assay on NCI-H23 lung, in the assay with HL-60(TB) leukemia and in the assay with COLO 205 colon was greater than 100 µM throughout. Moreover, the TGI in the assay on OVCAR-5 ovarian and in the assay with SR leukemia was greater than 100 µM throughout.
Turning to `C[Si](C)(C)/C(Br)=C\CCN1C(=O)CCC1O` (centres undefined), the TGI in the assay on UO-31 renal, with LOX IMVI melanoma, in the assay with SF-268 CNS, in the assay with NCI-H23 lung, with COLO 205 colon and in the assay on OVCAR-5 ovarian was greater than 100 µM in each case.
On to `N#CC(C#N)=C1NC(=O)C(c2ccccc2)C(=O)N1` (centres undefined), for which the TGI with UO-31 renal, in the assay on LOX IMVI melanoma, with SF-268 CNS, in the assay with NCI-H23 lung, in the assay with HL-60(TB) leukemia and with COLO 205 colon was greater than 100 µM throughout. In addition, the TGI in the assay on OVCAR-5 ovarian and in the assay on SR leukemia was greater than 100 µM throughout.
For `COC(=O)C1Cc2c([nH]c3ccccc23)C=N1` (centres undefined), the TGI in the assay on UO-31 renal, with LOX IMVI melanoma, in the assay on SF-268 CNS, with NCI-H23 lung, in the assay on HL-60(TB) leukemia and in the assay with COLO 205 colon was greater than 100 µM throughout. For the same compound, the TGI in the assay with OVCAR-5 ovarian and with SR leukemia was greater than 100 µM in each case.
On to `COC(=O)/C(C#N)=C1\N=NNN1CCCc1ccccc1`, for which the TGI with UO-31 renal, in the assay on LOX IMVI melanoma, in the assay with NCI-H23 lung and with COLO 205 colon was greater than 100 µM in each case.
As to `Cc1cc2c(=O)cc(-c3ccc(Cl)cc3)oc2c(C(=O)O)c1C`, the TGI in the assay with UO-31 renal, with LOX IMVI melanoma, in the assay on SF-268 CNS, in the assay on NCI-H23 lung, in the assay on COLO 205 colon and with OVCAR-5 ovarian was greater than 100 µM throughout.
Consider `COc1nc2c(nc(N)n2C2OC(CO)C(O)C(O)C2O)c(=O)n1C` (centres undefined), for which the TGI in the assay with UO-31 renal, in the assay on LOX IMVI melanoma, in the assay with SF-268 CNS, with NCI-H23 lung, in the assay with HL-60(TB) leukemia and in the assay with COLO 205 colon was greater than 100 µM in each case. The same compound came in with a TGI in the assay on SR leukemia greater than 100 µM.
